Reference: article PMC11487536 (ACS Pharmacology & Translational Science, 2024)
Values joined by “and” are separate entries in the source; they are usually repeats but may differ in a detail not shown here. Equal entries are not always repeated.

What was measured:
[1] = target: T1, sensing domain of P. fluorescens CtaA (Pseudomonas fluorescens, UniProt Q3K7T6); assay: Thermal shift assay; type: binding; conditions: for Midpoint Transition Temperature in Presence of Ligand, Tm: 5 μM CtaA, ligand 20 μM, pH 5.5
T1 sequence (Q3K7T6 30-277): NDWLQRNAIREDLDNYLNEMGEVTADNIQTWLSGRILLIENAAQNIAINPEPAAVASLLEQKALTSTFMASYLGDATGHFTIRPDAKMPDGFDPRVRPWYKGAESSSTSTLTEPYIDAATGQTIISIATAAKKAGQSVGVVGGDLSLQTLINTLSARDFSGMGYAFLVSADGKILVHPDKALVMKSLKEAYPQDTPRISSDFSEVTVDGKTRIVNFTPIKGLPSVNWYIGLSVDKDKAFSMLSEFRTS

[2] = target: T2, sensing domain of C. jejuni Tlp3 (Campylobacter jejuni, UniProt Q0P864); assay: Thermal shift assay; type: binding; conditions: for Midpoint Transition Temperature in Presence of Ligand, Tm: 10 μM Tlp3, ligand 3 mM (L-valine 10 mM), pH 8.0
T2 sequence (Q0P864 41-290): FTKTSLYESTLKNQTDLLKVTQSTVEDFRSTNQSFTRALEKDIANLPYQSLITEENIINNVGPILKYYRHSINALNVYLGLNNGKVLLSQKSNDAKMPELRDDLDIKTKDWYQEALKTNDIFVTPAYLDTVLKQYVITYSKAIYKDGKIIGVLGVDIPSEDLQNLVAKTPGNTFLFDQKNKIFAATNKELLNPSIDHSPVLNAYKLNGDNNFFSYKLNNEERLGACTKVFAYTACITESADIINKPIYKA

[3] = target: T3, TlpC (Helicobacter pylori, UniProt O24911); conditions: 25 °C; cited from earlier work
T3 sequence (O24911 32-299): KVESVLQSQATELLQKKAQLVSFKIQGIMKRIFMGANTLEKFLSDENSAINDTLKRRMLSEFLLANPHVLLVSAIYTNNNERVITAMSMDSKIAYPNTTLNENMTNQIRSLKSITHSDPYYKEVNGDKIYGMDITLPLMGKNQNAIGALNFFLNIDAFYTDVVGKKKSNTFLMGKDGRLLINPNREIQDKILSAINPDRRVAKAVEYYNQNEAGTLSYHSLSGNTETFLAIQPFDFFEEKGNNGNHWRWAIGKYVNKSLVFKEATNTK

Compound | Kd [1] | Midpoint Transition Temperature in Presence of Ligand, Tm [1] | Midpoint Transition Temperature in Presence of Ligand, Tm [2] | Kd [2] | ΔHL(T) from ITC (enthalpy of ligand binding) [3]
C[C@H](N)C(=O)O [L-Alanine, L-alanine] | 4.6 µM and 3.2 µM | 56.1 ± 0.1 °C |  |  | 
CC[C@H](C)[C@H](N)C(=O)O [L-Isoleucine, L-isoleucine] |  |  | 64.5 ± 0.3 °C |  | 
C[C@H](O)C(=O)O [L-Lactate, L-lactate] |  |  |  |  | –21.32 kcal mol^–1
CC(C)C[C@H](N)C(=O)O [L-Leucine, L-leucine] | 5 ± 1 µM | 54.7 ± 0.3 °C | 64.2 ± 0.2 °C | 222 µM and 90 µM and 116 µM | 
CCC[C@H](N)C(=O)O [L-Norvaline, L-norvaline] |  |  | 63.7 ± 0.3 °C |  | 

Continued, in another order:

Kd [1] | Midpoint Transition Temperature in Presence of Ligand, Tm [1] | Midpoint Transition Temperature in Presence of Ligand, Tm [2] | Kd [2] | Compound | ΔHL(T) from ITC (enthalpy of ligand binding) [3]
9 µM and 4 µM | 55.1 ± 0.3 °C |  |  | N[C@@H](CO)C(=O)O [L-Serine, L-serine] | 
1.5 µM and 1.2 µM | 57.6 ± 0.2 °C | 64.6 ± 0.3 °C | 578 µM and 240 µM and 316 µM | CC(C)[C@H](N)C(=O)O [L-Valine, L-valine] | 
